In patent US8952157B2, “Apoptosis-inducing agents for the treatment of cancer and immune and autoimmune diseases” (AbbVie Inc., priority 2008, dated 2015):
Where two headings read alike, the source gives them in different places.

Target: GST-Bcl-2 (Homo sapiens (Human), UniProt P10415)
Test: Time Resolved-Fluorescence Resonance Energy Transfer (TR-FRET) Bcl-2 binding assay
In short: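 Ki values derived from TR-FRET displacement of F-Bak peptide from GST-Bcl-2, detected with Tb-labelled anti-GST antibody (ex 340, em 520/495 nm). Compound dilution series started at 50 μM (2× starting concentration); room-temperature incubation 3 hours.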

[1] = GST-Bcl-2 1 nM, F-Bak peptide probe 100 nM, Tb-anti-GST antibody 1 nM, Ki by Wang's equation

Sequence of GST-Bcl-2 (P10415 whole entry): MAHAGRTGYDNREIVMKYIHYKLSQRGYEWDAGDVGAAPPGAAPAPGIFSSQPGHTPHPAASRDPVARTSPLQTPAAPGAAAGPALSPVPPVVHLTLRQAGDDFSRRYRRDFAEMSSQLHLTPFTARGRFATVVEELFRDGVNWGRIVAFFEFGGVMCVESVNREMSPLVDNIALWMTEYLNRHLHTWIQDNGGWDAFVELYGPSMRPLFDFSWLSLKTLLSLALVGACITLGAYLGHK

SMILES | Ki [1] [nM] | Ki [nM]
CN(C)CCCNc1ccc(S(=O)(=O)NC(=O)c2ccc(N3CCN(CC4=C(c5ccc(Cl)cc5)CC(C)(C)CC4)CC3)cc2Oc2cccc3c2c(CN2CCN(C)CC2)cn3CN2CCN(C)CC2)cc1[N+](=O)[O-] [Example 212, 2-({1,3-bis[(4-methylpiperazin-1-yl)methyl]-1H-indol-4-yl}oxy)-4-(4-{[2-(4-chlorophenyl)-4,4-dimethylcyclohex-1-en-1-yl]methyl}piperazin-1-yl)-N-[(4-{[3-(dimethylamino)propyl]amino}-3-nitrophenyl)sulfonyl]benzamide] | 0.375 | 
CN(C)CCCNc1ccc(S(=O)(=O)NC(=O)c2ccc(N3CCN(CC4=C(c5ccc(Cl)cc5)CC(C)(C)CC4)CC3)cc2Oc2cccc3[nH]cc(CN4CCN(C)CC4)c23)cc1[N+](=O)[O-] [Example 213, 4-(4-{[2-(4-chlorophenyl)-4,4-dimethylcyclohex-1-en-1-yl]methyl}piperazin-1-yl)-N-[(4-{[3-(dimethylamino)propyl]amino}-3-nitrophenyl)sulfonyl]-2-({3-[(4-methylpiperazin-1-yl)methyl]-1H-indol-4-yl}oxy)benzamide] | 0.031 | 
CN1CCC(Nc2ccc(S(=O)(=O)NC(=O)c3ccc(N4CCN(CC5=C(c6ccc(Cl)cc6)CC(C)(C)CC5)CC4)cc3Oc3ccccc3C(=O)N(C)C)cc2[N+](=O)[O-])CC1 [Example 214, 2-(5-(4-((2-(4-chlorophenyl)-4,4-dimethylcyclohex-1-enyl)methyl)piperazin-1-yl)-2-(4-(1-methylpiperidin-4-ylamino)-3-nitrophenylsulfonylcarbamoyl)phenoxy)-N,N-dimethylbenzamide] | 0.221 | 
CC1(C)CCC(CN2CCN(c3ccc(C(=O)NS(=O)(=O)c4ccc(NC5CCN(C6CCOCC6)CC5)c([N+](=O)[O-])c4)c(Oc4cccc5[nH]c(C(F)(F)F)cc45)c3)CC2)=C(c2ccc(Cl)cc2)C1 [Example 215, 4-(4-{[2-(4-chlorophenyl)-4,4-dimethylcyclohex-1-en-1-yl]methyl}piperazin-1-yl)-N-({3-nitro-4-[(1-tetrahydro-2H-pyran-4-ylpiperidin-4-yl)amino]phenyl}sulfonyl)-2-{[2-(trifluoromethyl)-1H-indol-4-yl]oxy}benzamide] | 2.95 | 
CC1(C)CCC(CN2CCN(c3ccc(C(=O)NS(=O)(=O)c4ccc(NC5CCN(C6CCOCC6)CC5)c([N+](=O)[O-])c4)c(Oc4ccc(O)cc4Cl)c3)CC2)=C(c2ccc(Cl)cc2)C1 [Example 216, 2-(2-chloro-4-hydroxyphenoxy)-4-(4-{[2-(4-chlorophenyl)-4,4-dimethylcyclohex-1-en-1-yl]methyl}piperazin-1-yl)-N-({3-nitro-4-[(1-tetrahydro-2H-pyran-4-ylpiperidin-4-yl)amino]phenyl}sulfonyl)benzamide] | 0.027 | 
CN1CCC(Nc2ccc(S(=O)(=O)NC(=O)c3ccc(N4CCN(CC5=C(c6ccc(Cl)cc6)CC(C)(C)CC5)CC4)cc3Oc3cc4cc[nH]c4cc3C(F)(F)F)cc2[N+](=O)[O-])CC1 [Example 217, 4-(4-{[2-(4-chlorophenyl)-4,4-dimethylcyclohex-1-en-1-yl]methyl)piperazin-1-yl)-N-((4-[(1-methylpiperidin-4-yl)amino]-3-nitrophenyl}sulfonyl)-2-{[6-(trifluoromethyl)-1H-indol-5-yl]oxy}benzamide] |  | 0.174
CC1(C)CCC(CN2CCN(c3ccc(C(=O)NS(=O)(=O)c4ccc(NC5CCN(C6CCOCC6)CC5)c([N+](=O)[O-])c4)c(Oc4cc5cc[nH]c5cc4C(F)(F)F)c3)CC2)=C(c2ccc(Cl)cc2)C1 [Example 218, 4-(4-{[2-(4-chlorophenyl)-4,4-dimethylcyclohex-1-en-1-yl]methyl}piperazin-1-yl)-N-({3-nitro-4-[(1-tetrahydro-2H-pyran-4-ylpiperidin-4-yl)amino]phenyl}sulfonyl)-2-{[6-(trifluoromethyl)-1H-indol-5-yl]oxy}benzamide] | 0.175 | 
CN1CCN(Nc2ccc(S(=O)(=O)NC(=O)c3ccc(N4CCN(CC5=C(c6ccc(Cl)cc6)CC(C)(C)CC5)CC4)cc3Oc3cc4cc[nH]c4c(F)c3F)cc2[N+](=O)[O-])CC1 [Example 220, 4-(4-{[2-(4-chlorophenyl)-4,4-dimethylcyclohex-1-en-1-yl]methyl}piperazin-1-yl)-2-[(6,7-difluoro-1H-indol-5-yl)oxy]-N-({4-[(4-methylpiperazin-1-yl)amino]-3-nitrophenyl}sulfonyl)benzamide] | 0.127 | 
CN1CCC(Nc2ccc(S(=O)(=O)NC(=O)c3ccc(N4CCN(CC5=C(c6ccc(Cl)cc6)CC(C)(C)CC5)CC4)cc3OCc3csc(NC(=O)OC(C)(C)C)n3)cc2[N+](=O)[O-])CC1 [Example 222, tert-butyl 4-[(5-(4-{[2-(4-chlorophenyl)-4,4-dimethylcyclohex-1-en-1-yl]methyl}piperazin-1-yl)-2-{[({4-[(1-methylpiperidin-4-yl)amino]-3-nitrophenyl}sulfonyl)amino]carbonyl}phenoxy)methyl]-1,3-thiazol-2-ylcarbamate] | > 1200 | 
CN1CCC(Nc2ccc(S(=O)(=O)NC(=O)c3ccc(N4CCN(CC5=C(c6ccc(Cl)cc6)CC(C)(C)CC5)CC4)cc3OCc3csc(N)n3)cc2[N+](=O)[O-])CC1 [Example 223, 2-[(2-amino-1,3-thiazol-4-yl)methoxy]-4-(4-{[2-(4-chlorophenyl)-4,4-dimethylcyclohex-1-en-1-yl]methyl}piperazin-1-yl)-N-({4-[(1-methylpiperidin-4-yl)amino]-3-nitrophenyl}sulfonyl)benzamide] | 10.9 | 
CC(=O)Nc1cccc(Oc2cc(N3CCN(CC4=C(c5ccc(Cl)cc5)CC(C)(C)CC4)CC3)ccc2C(=O)NS(=O)(=O)c2ccc(NC3CCN(C4CCOCC4)CC3)c([N+](=O)[O-])c2)c1 [Example 225, 2-[3-(acetylamino)phenoxy]-4-(4-{[2-(4-chlorophenyl)-4,4-dimethylcyclohex-1-en-1-yl]methyl}piperazin-1-yl)-N-({3-nitro-4-[(1-tetrahydro-2H-pyran-4-ylpiperidin-4-yl)amino]phenyl}sulfonyl)benzamide] | 3.28 | 
CC1(C)CCC(CN2CCN(c3ccc(C(=O)NS(=O)(=O)c4ccc(NC5CCN(C6CCOCC6)CC5)c([N+](=O)[O-])c4)c(Nc4ccccc4Cl)c3)CC2)=C(c2ccc(Cl)cc2)C1 [Example 226, 2-[(2-chlorophenyl)amino]-4-(4-{[2-(4-chlorophenyl)-4,4-dimethylcyclohex-1-en-1-yl]methyl}piperazin-1-yl)-N-({3-nitro-4-[(1-tetrahydro-2H-pyran-4-ylpiperidin-4-yl)amino]phenyl}sulfonyl)benzamide] | 7.59 | 
COc1cc2[nH]ccc2cc1Oc1cc(N2CCN(CC3=C(c4ccc(Cl)cc4)CC(C)(C)CC3)CC2)ccc1C(=O)NS(=O)(=O)c1ccc(NC2CCN(C3CCOCC3)CC2)c([N+](=O)[O-])c1 [Example 227, 4-(4-{[2-(4-chlorophenyl)-4,4-dimethylcyclohex-1-en-1-yl]methyl}piperazin-1-yl)-2-[(6-methoxy-1H-indol-5-yl)oxy]-N-({3-nitro-4-[(1-tetrahydro-2H-pyran-4-ylpiperidin-4-yl)amino]phenyl}sulfonyl)benzamide] | 0.174 | 
CN1CCC(Nc2ccc(S(=O)(=O)NC(=O)c3ccc(N4CCN(CC5=C(c6ccc(Cl)cc6)CC(C)(C)CC5)CC4)cc3Oc3ccc4nc(N)sc4c3)cc2[N+](=O)[O-])CC1 [Example 229, 2-[(2-amino-1,3-benzothiazol-6-yl)oxy]-4-(4-{[2-(4-chlorophenyl)-4,4-dimethylcyclohex-1-en-1-yl]methyl}piperazin-1-yl)-N-({4-[(1-methylpiperidin-4-yl)amino]-3-nitrophenyl}sulfonyl)benzamide] | 1.08 | 
CN1CCC(Nc2ccc(S(=O)(=O)NC(=O)c3ccc(N4CCN(CC5=C(c6ccc(Cl)cc6)CC(C)(C)CC5)CC4)cc3Nc3ccccc3Cl)cc2[N+](=O)[O-])CC1 [Example 230, 2-[(2-chlorophenyl)amino]-4-(4-{[2-(4-chlorophenyl)-4,4-dimethylcyclohex-1-en-1-yl]methyl}piperazin-1-yl)-N-({4-[(1-methylpiperidin-4-yl)amino]-3-nitrophenyl}sulfonyl)benzamide] | 2.83 | 
CN(C)CCCNc1ccc(S(=O)(=O)NC(=O)c2ccc(N3CCN(CC4=C(c5ccc(Cl)cc5)CC(C)(C)CC4)CC3)cc2Oc2ccc3c(ccn3C(=O)OC(C)(C)C)c2)cc1[N+](=O)[O-] [Example 231, tert-butyl 5-[5-(4-{[2-(4-chlorophenyl)-4,4-dimethylcyclohex-1-en-1-yl]methyl}piperazin-1-yl)-2-({[(4-{[3-(dimethylamino)propyl]amino}-3-nitrophenyl)sulfonyl]amino}carbonyl)phenoxy]-1H-indole-1-carboxylate] | 36.9 | 
CC1(C)CCC(CN2CCN(c3ccc(C(=O)NS(=O)(=O)c4ccc(NC5CCN(C6CCOCC6)CC5)c([N+](=O)[O-])c4)c(Oc4ccc5nc(N)sc5c4)c3)CC2)=C(c2ccc(Cl)cc2)C1 [Example 232, 2-[(2-amino-1,3-benzothiazol-6-yl)oxy]-4-(4-{[2-(4-chlorophenyl)-4,4-dimethylcyclohex-1-en-1-yl]methyl}piperazin-1-yl)-N-({3-nitro-4-[(1-tetrahydro-2H-pyran-4-ylpiperidin-4-yl)amino]phenyl}sulfonyl)benzamide] | 1.05 | 
CC1(C)CCC(CN2CCN(c3ccc(C(=O)NS(=O)(=O)c4ccc(NCCCN5CCNC(=O)C5)c([N+](=O)[O-])c4)c(Oc4cc5cc[nH]c5cc4F)c3)CC2)=C(c2ccc(Cl)cc2)C1 [Example 233, 4-(4-{[2-(4-chlorophenyl)-4,4-dimethylcyclohex-1-en-1-yl]methyl}piperazin-1-yl)-2-[(6-fluoro-1H-indol-5-yl)oxy]-N-[(3-nitro-4-{[3-(3-oxopiperazin-1-yl)propyl]amino}phenyl)sulfonyl]benzamide] | 0.037 | 
